Source: publication PMC11984388, “A brain-accessible peptide modulates stroke inflammatory response and neurotoxicity by targeting BDNF-receptor TrkB-T1 specific interactome” (Theranostics, 2025)
Residues, ends and D or L forms follow the SMILES beside them. *: point of attachment. Biotin = O=C1N[C@H]2[C@H](CS[C@H]2CCCCC(=O)*)N1

How the values were obtained:
[1] = Peptide delivery to brain cortex of undamaged animals; type: in vivo; settings: 3 nmol/g i.v. (retro-orbital), undamaged male mice, sacrificed 30 min after; Fluorescein Avidin D (Fig S5)
Experimental: Vehicle (saline), Bio-TMyc or Bio-TT1Ct (3 nmol/g) were retro-orbitally injected in mice one hour after induction of photothrombotic damage or, alternatively, undamaged animals. In the first case, animals were sacrificed 5 h after damage induction while, the second group was sacrificed 30 min after peptide administration. The details of brain fixation and cryoprotection for peptide visualization and/or immunohistochemistry are provided in the Supplementary material. […]
Finally, the sa mple s were mounted in Prolong Diamond. The images were acquired using an inverted Zeiss LSM 710 laser confocal microscope (Jena, Germany) with a 40x or 63x Plan-Apochromatic oil immersion objective. Images corre spond to single se ctions and were normalized for eac h colour se para tely and process ed for presenta tion with ImageJ (NIH Image) and Fiji.
Peptide visualization and immunohistochemis tr y in brain cortex
For peptide visua liz ation in undamaged or damaged brains, animals were deeply anes thetized and intra cardially perfus ed with cold PBS and 4% paraformalde hyde in PBS. Brains were post-fixed in the sa m e fixative at 4°C for 24 h and cryoprote cted in 30% suc ros e for 48 h at 4°C. […]

Iba1 = assay: Immunohistochemistry of microglia in ischemic brain; type: in vivo; settings: male mice, 3 nmol/g, 24 h of insult; versus TMyc
Experimental: (§1) The brains of animals injected one hour af ter the initiation of the photothrombotic damage with vehicle (saline), TMyc or TT1Ct (3 nmol/g) were process ed and cryoprote cted as before indicated. The duration of damage before sa cri f i ce was 5 h (male and female) or 24 h (male).
(§2) Coronal froze n se ctions were incubated with blocking solution as des cribe d in flota tion for 1 h at room temperature and then overnight with prima ry antibodies diluted in 4% goat se rum and 0.3% Triton X-100 in PBS at 4°C. After was hing, slides were incubated 1 h with Alexa Fluor 546- conjugated goat anti-rabbit or AlexaFluor 647- conjugated goat anti-mouse se condary antibodies to visua liz e the prima ry antibodies and DAPI (5 μg/ml). Only for Iba1 sta ining, blocking solution was 2.5% BS A, 5% goat se rum, 0.5% Triton X-100 in PBS, and se ctions were incubated with prima ry antibody 24 h at RT follow ed by was hing and Alexa Fluor 546-conjugated goat anti-rabbit and DAPI incubation for 1 h. Sections were then was hed in PBS, mounted on slides , dried for 15 min at 37 °C on a hot plate, or air dried overnight and then cover slipped with DPX or Prolong Diamond. Ce ll Obs erve d images were obtained with Zeiss microscope Observe r.Z1 using a 10x Plan-Apochromatic objective. […]

GFAP+/C3+ cells = assay: Immunohistochemistry of reactive astrocytes in ischemic brain; type: in vivo, mice; settings: 3 nmol/g 1 h after damage; early after injury (5 h); versus TMyc
Experimental: as §1, §2

CD68+ cells = assay: Immunohistochemistry of macrophages/activated microglia in ischemic brain; type: in vivo; settings: male mice, 3 nmol/g, 24 h of insult; versus TMyc
Experimental: as §1, §2

[2] = Immunoglobulin infiltration in ischemic brain; type: in vivo; settings: male mice, 24 h after insult; versus control peptide (Fig S7)
Experimental: as §1, §2

CC[C@H](C)[C@H](NC(=O)[C@H](CC(C)C)NC(=O)[C@H](CCCCN)NC(=O)[C@H](CCC(N)=O)NC(=O)[C@H](CCC(=O)O)NC(=O)[C@H](CCC(=O)O)NC(=O)[C@H](C)NC(=O)[C@H](CCCNC(=N)N)NC(=O)[C@H](CCCNC(=N)N)NC(=O)[C@H](CCCNC(=N)N)NC(=O)[C@H](CCC(N)=O)NC(=O)[C@H](CCCNC(=N)N)NC(=O)[C@H](CCCNC(=N)N)NC(=O)[C@H](CCCCN)NC(=O)[C@H](CCCCN)NC(=O)[C@H](CCCNC(=N)N)NC(=O)CNC(=O)[C@H](Cc1ccc(O)cc1)NC(=O)CCCC[C@@H]1SC[C@@H]2NC(=O)N[C@@H]21)C(=O)N[C@@H](CO)C(=O)N[C@@H](CCC(=O)O)C(=O)N[C@@H](CCC(=O)O)C(=O)N[C@@H](CC(=O)O)C(=O)N[C@@H](CC(C)C)C(=O)N[C@@H](CC(C)C)C(=O)N[C@@H](CCCNC(=N)N)C(N)=O [Bio-TMyc, reference compound] (Biotin-YGRKKRRQRRRAEEQKLISEEDLLR-NH2)
Crossing of the BBB and delivery to cortical cells [1]: able to cross the BBB and efficiently reach most cortical cells in 30 min

Ac-YGRKKRRQRRRPPFVLFHKIPLDG-NH2 [TT1Ct]
Effect on Iba1 in reactive microglia (Iba1): limited Iba1 upregulation
Effect on GFAP+/C3+ cells at the infarct boundary (GFAP+/C3+ cells): strong decrease
Effect on CD68+ cells in the infarct and surrounding tissues (CD68+ cells): greatly decreased
Immunoglobulin infiltration [2]: reduced immunoglobulin infiltration
